# From patent US20250270190A1, “KIT INHIBITORS” (BLUEPRINT MEDICINES CORPORATION, priority 2022, published 2025)
# Target: T1, c-kit autophosphorylation (Phospho c-Kit Tyr721) in HMC 1.1 (exon 11/13) cells, V654A (Homo sapiens, UniProt P10721, V560G/V654A)
# T1 construct: endogenous in cells; host or cells: HMC 1.1 (exon 11/13) cells
# Assay: pKIT Meso Scale Discovery (MSD) assay, inhibition of autophosphorylation of KIT, HMC1.1_V654A
# Format: cell-based
# Details: Table 1, cell line not named for Table 1, b1056 names pKIT HMC1.1_V654A, read-out: Code (IC50 for inhibition of autophosphorylation of KIT, pKIT MSD assay)
# Excerpt: In this MSD assay, specific capture antibodies for the analytes were coated in arrays in each well of a 96-well carbon electrode plate surface. The detection system used SULFO-TAG™ labels that emit light upon electrochemical stimulation initiated at the electrode surfaces of the […] and MULTI-SPOT® plates. The electrical stimulation was decoupled from the output signal, which was light and generated assays with minimal background. The goal of this assay was to assess the percent inhibition of autophosphorylation of c-kit in cells when treated with compounds of the disclosure in a dose-dependent manner.
# HMC1.1 cells were maintained in IMDM media supplemented with 20% Calf Serum with Iron and 100 units/mL Penicillin-Streptomycin and grown in a 37° C. humidified tissue culture incubator. HMC1.1 cells were passaged by 1:5 dilution into fresh IMDM media supplemented with 20% Calf Serum with Iron and 100 units/mL Penicillin-Streptomycin every 5-7 days and were discarded after 20 passages.
# Seeding was performed as follows: HMC cells were brought to 1×10^6 cells/mL in fresh phenol red free, serum-free, iron-free IDM media with Pen/Strep; cells were seeded/plated into respective U-bottom plate by dispensing 50 μL/well (50,000 cells) using the Multidrop, and covered and incubated cells at 37° C. in a humidified tissue culture incubator for 4 hours (starvation).
# Dosing was performed as follows: The compound mother plate was prepared by adding 16 μL of compound to 24 μL of DMSO to row A, odd-numbered columns of screen matrix plate. […] Intermediate plates were prepared in V-bottom plates by dispensing 98 μL of phenol red free, serum free IMDM media with Pen/Strep into all wells. 2 μL DMSO or 2 μL 10 mM staurosporine was added to appropriate control wells. At the end of four hours, the Bravo protocol 10 cpds vertical dose MSD 2 U-plates 96-well was used to: add 2 μL from the compound plate to the intermediate plate and dose cells with 7 μL from the intermediate plate. The cells were covered and incubated at 37° C. in a humidified tissue culture incubator for 90 min. The complete lysis buffer was prepared with AlphaLISA 5× Lysis Buffer supplemented with 1× protease inhibitor cocktail and kept on ice. The cells were pelleted by centrifuging plate at 2500×g for 5 min, 4° C. and media removed. Complete lysis buffer was added (14 μL/well). The cells were covered and shaken at 4° C. on a plate shaker at 600 rpm for 30 min and kept cold
# The MSD protocol was preformed as follows: Tris Wash Buffer (2L) was prepared by diluting 10× stock of Tris Wash Buffer to 1× in water. Blocking Solution was prepared by dissolving 600 mg Blocker A in 20 mL 1× Trish Wash Buffer (per plate). The Antibody Dilution Buffer was prepared by mixing 1 mL Blocking solution and 2 mL 1× Trish Wash Buffer (per plate) and kept on ice. Blocking Solution was added (150 μL/well) to each MSD plate using a multichannel repeater pipette. The plate was covered and incubated at room temperature on a plate shaker at 700 rpm for hr. The Bio Tek protocol RL-96w-wash-MSD_stacker_fromC was used to wash plates 3× with 150 μL/well. Cells were pelleted by centrifuging lysate plates at 2500×g for 5 mins. The Bravo protocol was used (transfer 25 ul supernatants from V-96 to assay plate) to transfer 25 μL sample lysate per well to each MSD plate. The plates were covered and incubated at room temperature on a plate shaker at 700 rpm for hr. The Bio Tek protocol RL-96w-wash-MSD_stacker_fromC was used to wash plates 3× with 150 μL/well. The Detection Antibody Solution was prepared by diluting the 60 μL of the 50× antibody stock in 2.94 mL of the Antibody Dilution Buffer (per plate) and kept on ice. 25 μL/well of detection antibody solution was added to each MSD plate. The plates were covered and incubated at room temperature on a plate shaker at 700 rpm for 1 hr. The Read Buffer was prepared by diluting 5 mL of 4× stock of Read Buffer to 1× in 15 mL water (per plate).
# T1 sequence (P10721 26-976 V560G/V654A): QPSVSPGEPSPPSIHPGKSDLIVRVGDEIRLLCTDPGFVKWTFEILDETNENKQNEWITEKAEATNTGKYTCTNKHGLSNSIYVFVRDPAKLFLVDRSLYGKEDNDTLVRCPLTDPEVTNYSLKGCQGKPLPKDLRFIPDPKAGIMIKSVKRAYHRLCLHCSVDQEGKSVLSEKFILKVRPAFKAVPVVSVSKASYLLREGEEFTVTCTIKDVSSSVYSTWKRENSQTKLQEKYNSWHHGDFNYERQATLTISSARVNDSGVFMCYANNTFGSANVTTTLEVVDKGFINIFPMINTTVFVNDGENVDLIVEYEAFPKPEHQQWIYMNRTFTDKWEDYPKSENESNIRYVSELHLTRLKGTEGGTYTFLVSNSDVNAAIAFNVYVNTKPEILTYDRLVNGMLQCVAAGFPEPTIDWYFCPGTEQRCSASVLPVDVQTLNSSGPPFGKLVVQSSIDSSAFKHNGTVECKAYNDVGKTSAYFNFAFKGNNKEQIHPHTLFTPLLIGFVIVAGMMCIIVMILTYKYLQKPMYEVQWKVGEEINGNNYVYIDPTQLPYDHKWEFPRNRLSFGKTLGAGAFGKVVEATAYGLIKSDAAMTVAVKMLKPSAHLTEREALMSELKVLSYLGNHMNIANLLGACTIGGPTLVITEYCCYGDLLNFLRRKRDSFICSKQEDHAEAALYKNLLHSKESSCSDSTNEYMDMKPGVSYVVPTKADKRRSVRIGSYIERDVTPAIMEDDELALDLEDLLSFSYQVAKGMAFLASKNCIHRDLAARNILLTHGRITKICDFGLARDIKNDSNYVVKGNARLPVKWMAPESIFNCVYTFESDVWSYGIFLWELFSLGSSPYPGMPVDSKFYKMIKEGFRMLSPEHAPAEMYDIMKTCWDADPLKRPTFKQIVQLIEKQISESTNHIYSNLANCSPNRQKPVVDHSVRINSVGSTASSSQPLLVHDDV
row,SMILES,IC50 [nM]
1,"CC(C)Oc1cc(Nc2cc(N)nc([C@H](C)F)n2)ncc1-c1cnn([C@@H]2CCOC2)c1 (single isomer, unassigned) [Compound 156, 2-((S)-1-fluoroethyl)-N4-(4-isopropoxy-5-(1-((R)-tetrahydrofuran-3-yl)-1H-pyrazol-4-yl)pyridin-2-yl)pyrimidine-4,6-diamine or 2-((S)-1-fluoroethyl)-N4-(4-isopropoxy-5-(1-((S)-tetrahydrofuran-3-yl)-1H-pyrazol-4-yl)pyridin-2-yl)pyrimidine-4,6-diamine]",< 10
2,"CC(C)Oc1cc(Nc2cc(N)nc([C@H](C)F)n2)ncc1-c1cnn([C@H]2CCOC2)c1 (single isomer, unassigned) [Compound 157, 2-((S)-1-fluoroethyl)-N4-(4-isopropoxy-5-(1-((S)-tetrahydrofuran-3-yl)-1H-pyrazol-4-yl)pyridin-2-yl)pyrimidine-4,6-diamine or 2-((S)-1-fluoroethyl)-N4-(4-isopropoxy-5-(1-((R)-tetrahydrofuran-3-yl)-1H-pyrazol-4-yl)pyridin-2-yl)pyrimidine-4,6-diamine]",< 10
3,"Nc1cc(Nc2cc(OC3CC3)c(-c3cnn([C@H]4CCNC4)c3)cn2)nc(C(F)F)n1 (single isomer, unassigned) [Compound 159, (S)-N4-(4-cyclopropoxy-5-(1-(pyrrolidin-3-yl)-1H-pyrazol-4-yl)pyridin-2-yl)-2-(difluoromethyl)pyrimidine-4,6-diamine or (R)-N4-(4-cyclopropoxy-5-(1-(pyrrolidin-3-yl)-1H-pyrazol-4-yl)pyridin-2-yl)-2-(difluoromethyl)pyrimidine-4,6-diamine]",< 10
4,"Nc1cc(Nc2cc(OC3CC3)c(-c3cnn([C@@H]4CCNC4)c3)cn2)nc(C(F)F)n1 (single isomer, unassigned) [Compound 160, (R)-N4-(4-cyclopropoxy-5-(1-(pyrrolidin-3-yl)-1H-pyrazol-4-yl)pyridin-2-yl)-2-(difluoromethyl)pyrimidine-4,6-diamine or (S)-N4-(4-cyclopropoxy-5-(1-(pyrrolidin-3-yl)-1H-pyrazol-4-yl)pyridin-2-yl)-2-(difluoromethyl)pyrimidine-4,6-diamine]",< 10
5,"Nc1cc(Nc2cc(OC3CC3)c(-c3cnn([C@H]4CCOC4)c3)cn2)nc(C(F)F)n1 (single isomer, unassigned) [Compound 164, (S)—N4-(4-cyclopropoxy-5-(1-(tetrahydrofuran-3-yl)-1H-pyrazol-4-yl)pyridin-2-yl)-2-(difluoromethyl)pyrimidine-4,6-diamine or (R)—N4-(4-cyclopropoxy-5-(1-(tetrahydrofuran-3-yl)-1H-pyrazol-4-yl)pyridin-2-yl)-2-(difluoromethyl)pyrimidine-4,6-diamine]",< 10
6,"CNC(=O)c1cnc(Nc2cc(N)nc(CF)n2)cc1NC [Compound 1, 6-((6-amino-2-(fluoromethyl)pyrimidin-4-yl)amino)-N-methyl-4-(methylamino)nicotinamide]",10 to 40
7,"CNc1cc(Nc2cc(N)nc(C(F)F)n2)ncc1C(N)=O [Compound 2, 6-((6-amino-2-(difluoromethyl)pyrimidin-4-yl)amino)-4-(methylamino)nicotinamide]",> 40
8,"CNC(=O)c1cnc(Nc2cc(N)nc([C@H](C)F)n2)cc1NC [Compound 3, (S)-6-((6-amino-2-(1-fluoroethyl)pyrimidin-4-yl)amino)-N-methyl-4-(methylamino)nicotinamide]",10 to 40
9,"CNC(=O)c1cnc(Nc2cc(N)nc(C(F)F)n2)cc1NC [Compound 4, 6-((6-amino-2-(difluoromethyl)pyrimidin-4-yl)amino)-N-methyl-4-(methylamino)nicotinamide]",< 10
10,"[2H]C([2H])([2H])Nc1cc(Nc2cc(N)nc(C(F)F)n2)ncc1C(=O)NC [Compound 5, 6-((6-amino-2-(difluoromethyl)pyrimidin-4-yl)amino)-N-methyl-4-((methyl-d3)amino)nicotinamide]",< 10

# Further lines, results first:
row,IC50 [nM],SMILES
1,< 10,"COc1cc(Nc2cc(N)nc(C(F)F)n2)ncc1-c1cnn(C[C@@H]2CCN2C)c1 (single isomer, unassigned) [Compound 139, (S)-2-(difluoromethyl)-N4-(4-methoxy-5-(1-((1-methylazetidin-2-yl)methyl)-1H-pyrazol-4-yl)pyridin-2-yl)pyrimidine-4,6-diamine or (R)-2-(difluoromethyl)-N4-(4-methoxy-5-(1-((1-methylazetidin-2-yl)methyl)-1H-pyrazol-4-yl)pyridin-2-yl)pyrimidine-4,6-diamine]"
2,< 10,"Nc1cc(Nc2cc(OC3CC3)c(-c3cnn(C[C@H]4CCN4)c3)cn2)nc(C(F)F)n1 (single isomer, unassigned) [Compound 161, (R)-N4-(5-(1-(azetidin-2-ylmethyl)-1H-pyrazol-4-yl)-4-cyclopropoxypyridin-2-yl)-2-(difluoromethyl)pyrimidine-4,6-diamine or (S)-N4-(5-(1-(azetidin-2-ylmethyl)-1H-pyrazol-4-yl)-4-cyclopropoxypyridin-2-yl)-2-(difluoromethyl)pyrimidine-4,6-diamine]"
3,< 10,"Nc1cc(Nc2cc(OC3CC3)c(-c3cnn(C[C@@H]4CCN4)c3)cn2)nc(C(F)F)n1 (single isomer, unassigned) [Compound 162, (S)-N4-(5-(1-(azetidin-2-ylmethyl)-1H-pyrazol-4-yl)-4-cyclopropoxypyridin-2-yl)-2-(difluoromethyl)pyrimidine-4,6-diamine or (R)-N4-(5-(1-(azetidin-2-ylmethyl)-1H-pyrazol-4-yl)-4-cyclopropoxypyridin-2-yl)-2-(difluoromethyl)pyrimidine-4,6-diamine]"
4,< 10,"Nc1cc(Nc2cc(OC3CC3)c(-c3cnn([C@@H]4CCOC4)c3)cn2)nc(C(F)F)n1 (single isomer, unassigned) [Compound 165, (R)—N4-(4-cyclopropoxy-5-(1-(tetrahydrofuran-3-yl)-1H-pyrazol-4-yl)pyridin-2-yl)-2-(difluoromethyl)pyrimidine-4,6-diamine or (S)—N4-(4-cyclopropoxy-5-(1-(tetrahydrofuran-3-yl)-1H-pyrazol-4-yl)pyridin-2-yl)-2-(difluoromethyl)pyrimidine-4,6-diamine]"
5,< 10,"CN[C@@H](C)Cn1cc(-c2cnc(Nc3cc(N)nc(C(F)F)n3)cc2OC(F)(F)F)cn1 (single isomer, unassigned) [Compound 195, (S)-2-(difluoromethyl)-N4-(5-(1-(2-(methylamino)propyl)-1H-pyrazol-4-yl)-4-(trifluoromethoxy)pyridin-2-yl)pyrimidine-4,6-diamine or (R)-2-(difluoromethyl)-N4-(5-(1-(2-(methylamino)propyl)-1H-pyrazol-4-yl)-4-(trifluoromethoxy)pyridin-2-yl)pyrimidine-4,6-diamine]"
6,< 10,"CN[C@H](C)Cn1cc(-c2cnc(Nc3cc(N)nc(C(F)F)n3)cc2OC(F)(F)F)cn1 (single isomer, unassigned) [Compound 196, (R)-2-(difluoromethyl)-N4-(5-(1-(2-(methylamino)propyl)-1H-pyrazol-4-yl)-4-(trifluoromethoxy)pyridin-2-yl)pyrimidine-4,6-diamine or (S)-2-(difluoromethyl)-N4-(5-(1-(2-(methylamino)propyl)-1H-pyrazol-4-yl)-4-(trifluoromethoxy)pyridin-2-yl)pyrimidine-4,6-diamine]"
